In PMC4545913, “Dual EZH2 and EHMT2 histone methyltransferase inhibition increases biological efficacy in breast cancer cells” (Clinical Epigenetics, 2015):
Like-named read-outs stand apart in the source and are kept apart here.

Legend:
Format in all cases: cell-based
[1] = system: SPINK1; test: qRT-PCR of SPINK1 mRNA in MDA-MB-231 cells; details: MDA-MB-231, multiple doses and time points
Description: Following compound treatment of MDA-MB-231 for 48 h (in 6-well plates), media was removed and 1.5 ml of TRIzol (Invitrogen) was added directly to lyse cells and RNA was isolated according to the manufacturer’s instructions. Reverse transcription was done using the SuperScript III First-Strand Synthesis System (Invitrogen) according to the manufacturer’s instructions. Each measurement was done in triplicate, and the List of Primers can be found in Additional file 2: Table S1. For normalisation, we have used GAPDH and RNA pol II. Experiments were also done with the ‘Fast Sybr Green Cell-to-CT™-Kit’ according to the manufacturer’s instructions (Applied Biosystem). Fifteen thousand cells per 96 well were plated, and after 24 h, treated with compounds at various concentrations.
For qRT-PCR measurements the 2x iQ SYBR Green Supermix (Bio-Rad), 200nM Primers and 0.4μl of cDNA /per 20μl reaction was used. The measurement was done in low-white 96-well plates (Bio-Rad) on a CFX96 Real-time System/C1000 Thermal Cycler (Bio-Rad) with the following protocol: 95°C for 3’; 95°C for 10’’, 56°C for 10’’, 72°C for 30’’ 42 cycles followed by a melting curve from 72°C to 95°C.

[2] = system: MDA-MB-231 cells; test: MTT cell viability assay; details: Homo sapiens
Description: Fig. 1 MTT and mRNA levels in MDA-MB-231 cells after pharmacological inhibition and siRNA knockdown of EZH2 and EHMT2(G9a), individually and in combination. a Expression levels of KRT17, FBX032, JMJD3, EZH2, SPINK1 and EHMT2 were measured by qRT-PCR in the MDA-MB-231 cell line 48 h after transfection with siRNAs targeting EZH2 and EHMT2, both individually and in combination. All measurements were normalised to the fold-change (relative to GAPDH) in the mock transfection control. Error bars represent the mean ± SD of experiment performed in technical triplicate. b Expression levels of KRT17, FBX032, JMJD3 and SPINK1 were measured by qRT-PCR in the MDA-MB-231 cell line treated for 48 h with GSK343, UNC0638, and UNC0638 (at 7.5 μM) with increasing doses of GSK343. Each group has been compared to the untreated sample following normalisation to GAPDH. Error bars represent the mean ± SD of experiment performed in technical triplicate. c MTT assay for cell viability of MDA-MB-231 cells after treatment. MDA-MB-231 cells were seeded in 96 well plates. After 24 h, increasing doses of GSK343, UNC0638 or combination treatments (1, 2.5, 5, 7.5, 10 and 15 μM) were added to cells. Control was media with 0.5 % DMSO. Cell viability was measured by MTT assay after a 48-h treatment and a 24-h proliferation period. Error bars represent the mean ± SEM of five independent repeats
(§1) For clonogenic assays, cells were treated with compound for 48 h, media were removed and replaced with fresh media for a further 12 days to measure colony formation. For cell viability assays, lymphoma cells were plated at 20,000 cells in 200 μl per well in U-bottom 96 well plates in RPMI medium +20 % FCS. Cells were re-suspended 48 h later, diluted 10-fold in PBS + propidium iodide (PI) and the concentration of PI negative cells was counted using an Attune flow cytometer with autosampler. Breast cancer cells were seeded at a density of 10,000 cells/well in a sterile 96 clear-well plate with 150 μl of DMEM (+10 % FCS and 2 mM L-Glutamine). Each compound treatment was performed in triplicate for 72 h at concentrations of 100 nM and 1, 5, 10 and 50 μM in 100 μl of full-medium. After 72 h, 20 μl of MTT solution (3 mg of MTT Formazan, Sigma/1 ml PBS) was added to the medium and incubated for 4 h at 37 °C in a CO2 incubator. The MTT-product was solubilised with 100 μl DMSO, and for 1 h, incubated in the dark at room temperature. The optical density was read at 570 nm with PHERAstar.

[3] = system: DB; test: Lymphoma cell growth, cell counting following propidium iodide staining; details: Homo sapiens, EZH2 Mutant Y646N, 48 h, PI negative cell count
Description: as §1

[4] = system: SC1; test: as above; details: Homo sapiens, SC-1, EZH2 W.T., 48 h, PI negative cell count
Description: as §1

[5] = system: SUDLH8; test: as above; details: EZH2 W.T. (amplified), 48 h, PI negative cell count
Description: as §1

[6] = system: WILL1; test: as above; details: WILL-1, EZH2 W.T., 48 h, PI negative cell count
Description: as §1

[7] = system: WSU-FSCLL; test: as above; details: EZH2 W.T., 48 h, PI negative cell count
Description: as §1

[8] = system: MCF10a; test: MTT cell viability assay, normal breast epithelial cell line; details: Homo sapiens, MCF-10A, read-out: Cell growth IC50 MCF10a
Description: as §1

[9] = system: breast cancer cell lines; test: MTT anti-proliferative effect on a small panel of breast cancer cell lines; details: read-out: Anti-proliferative IC50 values, range over panel
Description: The anti-proliferative effect of HKMTI-1-005 on a small panel of breast cancer cell lines was determined, with IC50 values in the range 2–10 μM (Table 3). […] The breast cancer cell line BT-474, which is the cell line most sensitive to HKMTI-1-005 treatment, has the highest relative expression of EZH2, as detected by Western analysis (data not shown).
as §1, with “The MTT-product was solubilised with 100 μl DMSO, and for 1 h, incubated in the dark at room temperature.” left out

[10] = system: H3K27me3 and H3K9me3; test: Western analysis of global histone marks in MDA-MB-231 cells; details: range of doses
Description: MDA-MB-231 cells seeded in 6 well plates at a cell density of 3 x 10^5 were treated with HKMTI-1-005 (1–7.5uM) for 48 h. Following lysis in Triton Extraction Buffer (TEB, PBS containing 0.5 % Triton ×100 (v/v), 1/1000 protease inhibitor), nuclei were re-suspended in 0.2 N HCL at a density of 4 x 10^7 nuclei per millilitre and incubated overnight at 4 °C to acid-extract the histones, before being centrifuged at 6500g for 10 min at 4 °C. Protein concentration was determined using the Bradford assay. H3K27me3, H3K9me3, H3K9me2, H3K9me and total H3 protein expression levels in the histone extract samples were determined using Western blot analysis using H3K27me3 (1:1000; Abcam), H3K9me3 (1:1000; Abcam), H3K9me (1:1000) and H3 (1:2000; Abcam) antibodies. After washing, the membrane was incubated with a horseradish peroxidase-labelled secondary antibody (1 h, room temperature). The membrane was incubated for 1 min with 5 mL of Pierce ECL Western blotting substrate (Thermo Scientific). Images were captured using Konica Minolta SRX101A Tabletop X-Ray film processor.

For `COc1cc2nc(N3CCN(C)CC3)nc(NC3CCN(Cc4ccccc4)CC3)c2cc1OC` [HKMTI-1-005], the “SPINK1 expression upon treatment” value [1] was “increased”, the IC50 ([2]; MDA-MB-231, MTT (Table 3B), read-out: Cell growth IC50 MDA-MB-231) was 4.3 µM and the IC50 ([2]; MDA-MB-231 (Table 2), read-out: Cell viability (MTT) IC50) was 4.3 µM. The IC50 [3] was less than 1 µM, the IC50 [4] was 3.71 µM and the IC50 [5] was less than 1 µM. For the same molecule, the IC50 [6] was 5.6 µM, the IC50 [7] was 3.41 µM and the IC50 [8] was greater than 15 µM. For the same molecule, the IC50 [9] was 2 to 10 µM and the “Global levels of H3K27me3 and H3K9me3 (Western)” value [10] was “reduced”.
